This is an account of results in patent publication US10590383B2, “Methods for differentiating pluripotent cells” (FUJIFILM Cellular Dynamics, Inc., priority 2016, dated 2020).

SMILES strings stand for the structures. Entries after “also recorded” stand apart in the source; their conditions may differ.

The test system of assay [1] is human induced pluripotent stem cell (iPS) cell lines. Put plainly: mDA progenitor patterning on process day 17 (FoxA2 by flow cytometry, FoxA2/Lmx1 co-expression by ICC). Conditions: for use in mono-SMAD inhibition methods to produce midbrain dopaminergic neurons from iPS cells / percentage of mDA progenitors induced (FoxA2 / FoxA2+Lmx1 cells): single SMAD inhibitor; for percentage of mDA progenitors induced (FoxA2 / FoxA2+Lmx1 cells): alternate patterning conditions, multiple iPSC lines, process day 17. In kind it is cell-based. The procedure:
Midbrain neuronal differentiation of human induced pluripotent stem cell (iPS) cell lines expanded on VTN-TN in Essential 8 medium was performed with small molecule and growth factor induction using a variety of differentiation media compositions and schedules as detailed in Tables 1-5. Generally, the iPS cells were cultured in D1 DA Neuron Induction Medium on Day 1, D2 Neuron Induction Medium on Day 2, and D3-D4 DA Induction Medium on Day 3 and 4. On Day 5, the cells were dissociated with TrypLE for 15 minutes and collected in DA Quench Medium before transferring the cells to a spinner flask suspension culture to form aggregates in D5 DA Neuron Aggregate Formation Medium.
On Day 6, the aggregates were settled, about 66% of the medium was removed, and the aggregates were fed DA Neuron Induction Medium. On Days 7-16, the aggregates were fed daily with DA Neuron Aggregate Maintenance Medium, and the medium was changed on Day 11 through 16. On Day 17, aggregates were dissociated to a single-cell suspension with TrypLE and plated onto Matrigel in D17 DA Neuron Aggregate Plating Medium. On Days 18, 20, 22 the medium was replaced with DopaNeuron Maturation Medium. On Day 24, the cells were dissociated using Accutase and plated in DA Neuron Maturation Plating Medium. The next day, the medium was replaced with DopaNeuron Maturation Medium.
The iCell DopaNeurons process was optimized with most progenitor patterning factors added starting on day 1. This includes factors for neuralization (dual-SMADi), sonic hedgehog signaling (Shh, PMN), and Wnt signaling (CHIR). […] A large number of optimization experiments were carried out across several iPSC lines to define conditions for efficient mono-SMADi mDA progenitor patterning, varying the timing and dose of all patterning factors. […] In the alternate (ALT) method, the SHH/Purmophamine addition was moved from Day 1 to Day 2. The changes utilized in this improvement included: (i) staggering the addition of the Wnt agonist (CHIR) to day 2 or day 3, (ii) re-optimizing the CHIR concentration, as this is dependent on the time it is first added, and (iii) moving the window where PD03 is added, as the optimal window depends on when CHIR is added. The end result was a narrow set of conditions that led to highly-efficient mDA progenitor formation in multiple iPS cell lines. Approximately half of the iPSC lines tested were able to generate mDA progenitors using mono-SMADi conditions.
FoxA2/Lmx1 coexpression is the most accurate marker for mDA progenitor cells. The use of alternate patterning conditions allows for efficient mDA progenitor patterning in the context of mono-SMAD inhibition (“Mono/Alternate”), whereas the standard patterning conditions have poor mDA progenitor patterning in the context of mono-SMAD inhibition (“Mono/Standard”). Control differentiations using dual-SMADi and standard patterning conditions (“Dual/Standard”) are shown for comparison.
Once an alternate patterning condition was identified that allowed for successful differentiation using mono-SMAD inhibition (Condition 1, i.e., Table 4: Alternate, LDN at 200 nM), the method was refined using a matrix of conditions, including the concentration of CHIR, and the treatment windows for Shh signaling, Wnt signaling, and MEK inhibition. […] Tyrosine hydroxylase (TH) expression is low in immature mDA neurons.
Different inhibitors were tested for function in mono-SMADi methods, as follows. The iCell DopaNeurons process induces neuralization using LDN-193189, an inhibitor of BMP signaling (inhibits ALK 1/2/3/6, blocks SMAD 1/5/8), and SB-431542, an inhibitor of TGF-b signaling (inhibits ALK 4/5/7, blocks SMAD 2/3). Together, this is referred to as “dual SMAD inhibition”, or “dual SMADi.” To define optimal conditions for neuralization using only a single SMAD inhibitor in the mDA process, various analogs of LDN-193189 and SB-431542 were screened across multiple iPS cell lines using the alternate patterning conditions described above. […]

In assay [2] the test system is dividing cells / post-mitotic mDA neurons. Put plainly: In-process purification of mDA neurons with mitomycin C (neuron purity MAP2+/nestin-, day 37). In kind it is cell-based, human. The following applies: chemo drug selection, no selection gave 44%.
Excerpt: In-Process Purification of mDA Neurons: Even with efficient mDA progenitor patterning, there is a population of cells that continues to proliferate even after the maturing mDA neurons leave the cell cycle (approximately day 25). […] Intermediate doses given for intermediate times could also be used to achieve a similar effect.
The target in assay [3] is TGF-β type 1 (ALK4/5/7) receptor signaling. Conditions: read-out: IC50 for inhibition of TGF-β type 1 (ALK4/5/7) receptor signaling; cited from earlier work.
For a further assay, the system named is iPSC-derived mDA neurons. The experiment in a line: Marker characterization at process completion, day 37 (MAP2/nestin, FoxA2, TH). In kind it is cell-based, human. Conditions: 2 μM LDN versus 200 nM, Condition 7, iPSC line K. The source says:
On Day 31, the cells were dissociated with Accutase and re-plated onto poly-L-ornithine (PLO)/Laminin-coated flasks in DA Neuron Maturation Plating Medium. Next, on Days 32, 34, and 36, the cells were fed DopaNeuron Maturation Medium. On Day 37 or 38, the cells were again dissociated with Accutase and subjected to analysis or cryopreserved for later use.
Three iPSC lines (C, K, and H) are shown as examples of successful differentiations taken to process completion (day 37) (FIG. 5). The iPSC lines C, K, and H are iPSC lines (21526.101, 21534.101, and 21531.101, respectively). Data was obtained using the approach in Table 4 for Alternate LDN and Table 1 for Standard Dual control. Differentiation of the H line using dual-SMADi and the optimized standard patterning is shown for comparison. In each case, a high level of neuron purity was observed (>90% MAP2+/nestin−), and essentially all neurons co-express FoxA2. The inventors have observed that the vast majority of MAP2+/FoxA2+ cells at this stage also express Lmx1, and are therefore mDA neurons. The DA neuron phenotype was confirmed by the expression of tyrosine hydroxylase (TH) in the majority of neurons, a marker of more mature DA neurons. […]

For `CC(C)Oc1ccc(-c2cnc3c(-c4ccnc5ccccc45)cnn3c2)cc1` [DMH-1], in assay [1], the “use in mono-SMAD inhibition methods to produce midbrain dopaminergic neurons from iPS cells” value is recorded as “successfully used”. For the compound `CO[C@@]12[C@H](COC(N)=O)C3=C(C(=O)C(C)=C(N)C3=O)N1C[C@@H]1N[C@@H]12` [MMC, mitomycin C], the “final neuron purity (MAP2+/nestin−)” value in assay [2] was > 90%. Take `c1ccc(-c2[nH]ncc2-c2ccnc3ccccc23)nc1` [LY364947]: the “percentage of mDA progenitors induced (FoxA2 / FoxA2+Lmx1 cells)” value (“percentage … (FoxA2 / FoxA2+Lmx1 cells)” for short) in assay [1] was “did not outperform LDN”. As for `c1ccc2c(-c3cnn4cc(-c5ccc(N6CCNCC6)cc5)cnc34)ccnc2c1` [LDN-193189], the IC50 in assay [3] was > 500 nM. Besides, in the assay with iPSC-derived mDA neurons, the “percentage of floor plate-derived neurons (FoxA2+) on process day 37” value is recorded as “higher percentage of floor plate-derived neurons (FoxA2+)”. Further, the “FoxA2 and Lmx1 expression levels in day 17 progenitors” value in assay [1] (2 μM LDN versus 200 nM, Condition 7, iPSC line K, n=5 experiments) is “higher FoxA2 and Lmx1 expression levels”. Moreover, in assay [1], the “use in mono-SMAD inhibition methods to produce midbrain dopaminergic neurons from iPS cells” value is “successfully used” and the “percentage … (FoxA2 / FoxA2+Lmx1 cells)” value is “best overall at inducing the highest percentage of mDA progenitors; also recorded: most efficient at neutralizing mDA progenitors across multiple iPSC lines”. Regarding `Cc1cccc(-c2nn(C(=S)Nc3ccccc3)cc2-c2ccnc3ccccc23)n1` [A-83-01], the “percentage … (FoxA2 / FoxA2+Lmx1 cells)” value in assay [1] is given as “did not outperform LDN”.
